Assay results published in PubChem BioAssay (NCI).
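Assay format: 96-well plates, 48-hour exposure. At the GI50, growth is halved. TGI is the concentration that stops growth completely.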

How the values were obtained:
Test in all cases: NCI tumour cell line growth inhibition, 48 h
RXF 393 renal = test system: RXF 393 renal
KM12 colon = test system: KM12 colon
A549 NSCLC = test system: A549 NSCLC
MALME-3M melanoma = test system: MALME-3M melanoma
NCI-H226 lung = test system: NCI-H226 lung
SK-MEL-28 melanoma = test system: SK-MEL-28 melanoma
NCI/ADR-RES ovarian = test system: NCI/ADR-RES ovarian
SF-268 CNS = test system: SF-268 CNS
MDA-N = test system: MDA-N
ACHN renal = test system: ACHN renal

SMILES | GI50 (RXF 393 renal) [µM] | TGI (RXF 393 renal) [µM] | GI50 (KM12 colon) [µM] | TGI (KM12 colon) [µM] | GI50 (A549 NSCLC) [µM] | TGI (A549 NSCLC) [µM] | GI50 (MALME-3M melanoma) [µM] | TGI (MALME-3M melanoma) [µM] | GI50 (NCI-H226 lung) [µM] | TGI (NCI-H226 lung) [µM] | GI50 (SK-MEL-28 melanoma) [µM] | TGI (SK-MEL-28 melanoma) [µM] | GI50 (NCI/ADR-RES ovarian) [µM] | TGI (NCI/ADR-RES ovarian) [µM] | GI50 (SF-268 CNS) [µM] | TGI (SF-268 CNS) [µM] | TGI (MDA-N) [µM] | TGI (ACHN renal) [µM] | GI50 (ACHN renal) [µM]
N#C[S-].[La+3].c1ccc(-c2ccccn2)nc1.c1ccc(-c2ccccn2)nc1.c1ccc(-c2ccccn2)nc1 | 22.5 | 84.7 | 51 | > 100 | 28.6 | > 100 | 23.3 | 60.9 | 19.5 | 67.9 | 30.9 | > 100 |  |  |  |  |  |  | 
[CH3][Sn]([CH3])([CH3])[S]C(=S)N1CCOCC1 | 0.7 |  | 2.11 | 11.1 | 1.07 | > 92.7 | 3.49 | 14.8 | 2.72 | 17 | 3.49 | 33.6 | 1.82 | 11.2 | 3.65 | > 100 |  |  | 
CC(=O)Oc1ccc2cc(Oc3cc(Cl)c(Cl)cc3Cl)c(=O)oc2c1 |  | 31.5 |  | 25.6 |  | 40.2 |  | 31.3 |  | 36.7 |  | 59.6 |  |  |  | > 100 | 30.6 | 50.5 | 
COC(=O)[C@@H]1c2c(oc3cc(CO)cc(O)c3c2=O)C=C[C@H]1O |  | 10.1 |  | 14.8 |  | 34.1 |  | 4.91 |  | 51.5 |  | 18.1 |  | 47.5 |  | 21.7 | 18.9 |  | 
CCCCCCCCCCCC1N=C(N)N=C(N)N1c1cccc(Br)c1 (stereo not drawn) |  |  |  |  |  |  | 1.77 | 3.38 |  |  |  |  | 14.6 | 39.6 | 1.28 | 2.7 |  | 7.05 | 2.52
CN(C)C(=O)C(F)(F)C(c1ccccc1Br)C1C(=O)N(C)C(=O)N(C)C1=O (stereo not drawn) |  | > 100 |  | > 100 |  | > 100 |  | > 100 |  | > 100 |  | > 100 |  | > 100 |  | > 100 |  | > 100 | 
NC(Cc1ccccc1)C(=O)OCN1C(=O)C2C3C=CC(C2C1=O)C1C(=O)N(COC(=O)C(N)Cc2ccccc2)C(=O)C31 (stereo not drawn) |  | > 100 |  |  |  | > 100 |  | > 100 |  | > 100 |  | > 100 |  | > 100 |  | > 100 | > 100 | > 100 | 
COC(=O)CN1CCN(c2cccc3c2CCCC3)CC1 |  | > 100 |  | > 100 |  | > 100 |  | > 100 |  | 94.6 |  |  |  | > 100 |  |  | > 100 | > 100 | 
COc1cc2c(c(OC)c1OC)C(=O)c1c(O)cc(C)c(OC)c1C2=O |  |  |  | > 100 |  | > 100 |  | > 100 |  | > 100 |  | > 100 |  | > 100 |  | > 100 | > 100 | > 100 | 
Cc1ccc(C)c2c1C1CCCCC3(OCCCO3)C21O (stereo not drawn) |  | > 100 |  | > 100 |  | > 100 |  | > 100 |  | > 100 |  | > 100 |  |  |  | > 100 |  | > 100 | 
Cc1c(C#N)c2nnn(-c3cccc(Cl)c3)c(=O)n2c1-c1ccccc1 |  | 5.84 |  | 14.9 |  | > 100 |  | > 100 |  | 12.6 |  | > 100 |  | > 100 |  | > 100 |  | > 100 | 
Cc1ccc(S(=O)(=O)OC[C@@]2(C)CC[C@]3(C)CC[C@]4(C)C(=C3C2)C=C[C@@H]2[C@@]3(C)CCCNC(C)(C)[C@@H]3CC[C@]24C)cc1 | 1.35 | 2.86 | 1.86 | 3.57 |  |  | 1.68 | 3.26 |  |  | 1.78 | 3.26 | 2.05 | 4.59 | 1.95 | 4.12 |  | 3.1 | 1.72
Cc1sc(/N=C/C2=C(O)CC(C)(C)CC2=O)nc1-c1ccccc1 |  | > 100 |  | > 100 |  | > 100 |  |  |  | > 100 |  | > 100 |  | > 100 |  | > 100 | > 100 | > 100 | 
Clc1cc(N/N=C(\c2ccccc2)c2ccccn2)ncn1 |  | > 100 |  | > 100 |  | > 100 |  | 3.35 |  | 67.3 |  | > 100 |  |  |  | > 100 | > 100 | > 100 | 
O=C1Cc2cc3ccccc3nc2-c2ccccc2N1 |  | > 100 |  | > 100 |  | > 100 |  | > 100 |  | > 100 |  | > 100 |  | > 100 |  | > 100 |  | > 100 | 
C=C1OC2OC(C)C(NC(=O)OCC(Cl)(Cl)Cl)C(OC(C)=O)C2O1 (stereo not drawn) |  | > 100 |  | > 100 |  | > 100 |  | > 100 |  | > 100 |  | > 100 |  | > 100 |  | > 100 |  | > 100 | 
C[N+](C)(CCNc1ccc(NCC[N+](C)(C)Cc2ccc([N+](=O)[O-])cc2)c2c1C(=O)c1c(O)ccc(O)c1C2=O)Cc1ccc([N+](=O)[O-])cc1 |  | > 50 |  | 14.5 |  | > 50 |  | > 50 |  |  |  | > 50 |  | > 50 |  | > 50 | > 50 | > 50 | 
CCOC(=O)c1ccc(N(CCOS(C)(=O)=O)CCOS(C)(=O)=O)cc1 |  | 38.5 |  | > 100 |  | > 100 |  | > 100 |  |  |  | > 100 |  | > 100 |  | > 100 | > 100 | 63.7 | 
CC(=O)N[C@@H](Cc1ccc(O)cn1)C(=O)NCc1ccc(Cl)cc1 |  | > 100 |  | > 100 |  | > 100 |  | > 100 |  | > 100 |  | > 100 |  | > 100 |  |  | > 100 | > 100 | 
OC12CCC3(OC4CCCCO4)c4ccccc4C3C1c1ccccc12 (stereo not drawn) |  | > 100 |  | > 100 |  | > 100 |  | > 100 |  | > 100 |  | > 100 |  |  |  | > 100 |  | > 100 | 
COc1ccc(-c2nc3ccccc3c(=O)[nH]2)cc1 |  | > 100 |  | > 100 |  | > 100 |  | > 100 |  | > 100 |  | > 100 |  | > 100 |  | > 100 | > 100 |  | 
CC1OC(OC2C(O)CC(OC3C(O)CC(OC4CCC5(C)C(CCC6C5CCC5(C)C(C7=CC(=O)OC7)C(O)CC65O)C4)OC3C)OC2C)CC(O)C1O (stereo not drawn) |  | 0.299 |  |  |  | 0.0706 |  | 0.816 |  | 2.14 |  | 5.86 |  | 0.968 |  | 0.607 | 1.11 | 0.473 | 
